For one series, the system named is xenografted tumors. Kind of series: Autophagy, apoptosis and Ki67 markers in xenografted tumors. Format: in vivo, BALB/c-nu/nu mice. The procedure:
(§1) Fig. 7 Ebselen suppresses colorectal cancer tumor growth. A A brief diagram of the animal experiment for subcutaneous xenografted tumor model. 2 × 10^6 (2e^6) SW620 cells were xenografted into BALB/c-nu/nu mice by subcutaneous injection (s.c.). After 10 days, mice were injected intraperitoneally (i.p.) with indicated doses of Ebselen every two days, and monitoring of tumor volume and body weight changes were performed. B–D Representative tumor images and tumor weight at the end time point were captured from SW620 cell-based xenografts. Mean tumor weight ± SEM (C) and mean tumor volume ± SEM (D) were shown. E The inhibitory effect of ATG4 in xenografted tumors was detected by FRET assay. F, I The protein level of autophagy and apoptosis in xenografted tumors were detected by western blot. Representative results were shown and the statistical results of each group were obtained from seven mice. J, K The immunohistochemistry analysis of Ki67 in xenografted tumors (group vehicle and Ebselen 10 mg/kg). Bar = 20 μm. The positive Ki67 area rate was obtained from the ratio of positive Ki67 area to total cell area by Image J
(§2) Four- to six-weeks-old BALB/C nu/nu female mice purchased from the Experimental Animal Center of Sun Yat-Sen University, were approved by the Animal Ethics Committee at Sun Yat-sen University and kept in specific-pathogen-free environment. Approximately 2 × 10^6 SW620 cells or 1 × 10^7 HCT116 cells were injected subcutaneously into the dorsal flank on the right side of the mice. Different groups were divided randomly when the tumor volume was approximately 60–80 mm^3, before drug administration intraperitoneally (i.p.). Tumor volume was measured by calipers and calculated using the equation: 0.5 × length × width^2. At the end of the experiments, the mice were sacrificed and tumors were dissected and weighed. In particular, we employed Servicebio (Wuhan, China) to carry out H&E staining and immunohistochemistry assay.

A short description of series [1]: Body weight and organ H&E in xenografted mice. The settings on record: 5, 10, 20 mg/kg i.p. every two days. Format: in vivo, BALB/c-nu/nu mice. The procedure:
as §2
(§3) Supplementary file 13578_2022_944_MOESM1_ESM.docx: Additional file 1: Figure S1. Screening of ATG4B inhibitors based on the approved drugs library by FRET assay. […] (D) Candidate compound number and name correspondence table, and IC50 calculation of nine commercially available compounds for ATG4B by FRET assay. Figure S2. […] Figure S3. […] Figure S5. […] Figure S6.

In series [2] the target is T1, endogenous ATG4B in HeLa cells (Homo sapiens, UniProt Q9Y4P1).
T1 construct: endogenous in cells; host or cells: HeLa
T1 sequence (Q9Y4P1 whole entry): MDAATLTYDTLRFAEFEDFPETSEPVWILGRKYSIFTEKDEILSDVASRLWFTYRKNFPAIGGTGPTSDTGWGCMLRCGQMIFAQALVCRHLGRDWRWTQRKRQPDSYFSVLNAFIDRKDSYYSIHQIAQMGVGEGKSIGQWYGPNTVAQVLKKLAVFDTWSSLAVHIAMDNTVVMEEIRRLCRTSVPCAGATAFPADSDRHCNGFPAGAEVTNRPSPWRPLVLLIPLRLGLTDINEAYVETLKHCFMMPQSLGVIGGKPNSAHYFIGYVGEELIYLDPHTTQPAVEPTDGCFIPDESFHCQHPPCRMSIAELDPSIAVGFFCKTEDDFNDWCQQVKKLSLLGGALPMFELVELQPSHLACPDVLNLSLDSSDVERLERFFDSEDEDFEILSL
Kind of series: Endogenous ATG4B activity in cells by FRET assay. Format: cell-based.
Description: as §3

In series [3] the target is T2, ATG4B (cell lysates from ATG4B-Flag 293 T) (Homo sapiens, UniProt Q9Y4P1).
T2 construct: expressed in transfected cells; host or cells: 293T (ATG4B-Flag 293 T line)
T2 sequence (Q9Y4P1 whole entry): as above
Kind of series: In vitro cleavage assay of LC3B-GST with ATG4B-overexpressing cell lysates. Format: biochemical. Conditions: compounds 10 μM, 30 min at 37 °C.
Description: A, B Cell lysates (1.5 μg) from ATG4B-Flag 293 T were incubated with different compounds (10 μM) for 30 min at 37 °C, then recombinant LC3B-GST (3 μg) were added up to 20 μl and inhibitions were detected by SDS-PAGE and CBB staining (A). B Statistical chart of gel results of three repeated experiments. Ebselen was abbreviated as Ebs, the same below. CON as control without lysate, NC as negative control without compound.

Series [4] concerns the target T3, Recombinant protein ATG4A (Homo sapiens, UniProt Q8WYN0).
T3 construct: 6xHis; made in house; host or cells: E. coli BL21(DE3)
Kind of series: FRET-based assay for ATG4A activity. Format: biochemical. The settings on record: FRET-based enzymatic cleavage. The procedure:
FRET-based assay for ATG4B or ATG4A activity was operated as previously described. Briefly, Recombinant protein ATG4B (0.75 μg/ml) or ATG4A (5 μg/ml) was incubated with compounds in reaction buffer (150 mM NaCl, 20 mM Tris–HCl, pH 8.0, 0.1% CHAPS, 1 mM EDTA) at 37 °C. After 30 min, substrate FRET-GATE-16 (50 μg/ml) was added to a final volume of 50 μl. The reaction was recorded via relative fluorescence intensity ratio of 527 nm/477 nm (RFU). The final inhibition rate of the compound for ATG4 was calculated as: (RFUcompound-RFUNC)/(RFUCON-RFUNC) × 100%; respectively, NC as negative control without inhibitor, CON as control without enzymes. For ATG4 activity determination in cells and tissues, cells or separated tumor samples were homogenized in a native lysis buffer (150 mM NaCl, 20 mM Tris–HCl, pH 7.6, 1% TritonX-100, 1 mM EDTA) without protease inhibitors. Then 5 μg total proteins from each sample was added into FRET assay system after clean supernatant proteins were separated. The reaction was recorded via relative fluorescence intensity ratio of 527 nm/477 nm. Finally, the inhibition rates of ATG4B were calculated with the vehicle or CM group as the negative control (ATG4 activity defined as 100%).

Series [5] deals with SW620 cell-based xenografts. Kind of series: SW620 subcutaneous xenograft tumor model. Format: in vivo, BALB/c-nu/nu mice. The procedure: as §1, with “The positive Ki67 area rate was obtained from the ratio of positive Ki67 area to total cell area by Image J” left out
Four- to six-weeks-old BALB/C nu/nu female mice purchased from the Experimental Animal Center of Sun Yat-Sen University, were approved by the Animal Ethics Committee at Sun Yat-sen University and kept in specific-pathogen-free environment. […] Tumor volume was measured by calipers and calculated using the equation: 0.5 × length × width^2. […]

Series [6] relates to Caspase 1, 2, 3, 4, 6, 8 and 9. Kind of series: Caspase activity assay kits, caspase panel. Format: biochemical. The settings on record: 10 μM; most caspases other than CASP2 and CASP3. The procedure:
The enzyme activity of Caspase 1, Caspase 2, Caspase 3, Caspase 4, Caspase 6, Caspase 8 and Caspase 9 were determined via the activity assay kits (C1101, C1107, C1115, C1121, C1135, C1151 and C1157) from Beyotime (Shanghai, China). Then the experimental procedures were performed according to the manufacturer’s protocols.

The subject of another series is WT HCT116. Kind of series: Cell viability by CCK-8 assay, WT HCT116. Format: cell-based. The procedure:
WT/ATG4B KO HCT116, WT/ATG4B KO SW620 and WT/ATG4B KO RKO cells were seeded in 96-well plate at 1000–1500 cells per well for cell viability assay, and seed in 6-well plate at 1 × 10^5 cells per well for cell number counting. After 12 h, the indicated drugs were added to the medium and cultured for another 96 h. Total viable cell numbers were counted by a cell counter (BioRAD), and cell viability was determined by cell-count-8 assay kit (CCK-8, Bimake, B34304) according to the manufacturer’s protocol.

A further series concerns WT and ATG4B KO HCT116. Kind of series: Apoptosis detection by cleaved PARP western blot. Format: cell-based. The settings on record: low or high concentrations of Ebselen; STS 2 μM; 6 h. On the technique in general: A western blot detects proteins with antibodies after separation by electrophoresis.

T3 sequence (Q8WYN0 whole entry): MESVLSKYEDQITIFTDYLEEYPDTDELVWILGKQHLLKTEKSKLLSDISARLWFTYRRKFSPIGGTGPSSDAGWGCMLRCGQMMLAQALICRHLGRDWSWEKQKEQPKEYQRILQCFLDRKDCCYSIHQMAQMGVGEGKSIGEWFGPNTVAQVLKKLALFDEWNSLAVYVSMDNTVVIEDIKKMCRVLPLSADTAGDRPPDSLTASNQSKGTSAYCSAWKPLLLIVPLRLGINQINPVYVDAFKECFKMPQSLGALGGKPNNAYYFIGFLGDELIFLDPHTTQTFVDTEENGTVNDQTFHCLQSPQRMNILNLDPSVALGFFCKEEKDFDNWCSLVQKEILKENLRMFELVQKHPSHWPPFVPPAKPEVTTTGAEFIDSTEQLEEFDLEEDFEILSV

Broadly, the IC50 is the concentration at which inhibition is half-maximal. Higher therefore signals weaker potency in that assay. For `O=c1c2ccccc2[se]n1-c1ccccc1` [Ebselen], the “Ki67 positivity in tumors” value with xenografted tumors (Ebselen 10 mg/kg, immunohistochemistry) is recorded as “significant reduction of Ki67 positivity”. In the series on xenografted tumors (compared with the vehicle group), the “autophagy flux in tumors (LC3-II, p62)” value was “significantly inhibited”. In the series with xenografted tumors (western blot), the apoptosis of tumors result is “inhibited the apoptosis of tumors in a dose-dependent manner”. The “body weight change or organs damage” value in [1] is on record as “no obvious mice body weight change or organs damage”. In addition, the “inhibition of endogenous ATG4B in cells” value in [2] is “inhibited in a time- and dose-dependent manner”. Further, in series [3], the “cleavage activity of ATG4B on LC3B-GST in cell lysates” value is listed as “strongly suppressed”. For the same molecule, the “inhibition of ATG4A compared to ATG4B” value in [4] is given as “weaker inhibition”. The anti-tumor effect entry in series [5] (5 mg/kg i.p. every two days) is listed as “obvious anti-tumor effect”. The growth of tumors result in series [5] (5, 10, 20 mg/kg i.p. every two days, compared with vehicle) is “significantly suppress the growth of tumors”. In addition, the “effect on most caspase activities” value in [6] is given as “no significant effect”. Moreover, the “inhibition of the viability of CRC cell lines” value in the series with WT HCT116 (Fig. 6F) is ~ 50%. Moreover, the IC50 in the series with WT HCT116 (Homo sapiens, HCT-116, CCK-8, 96 h) came to 18.9 µM. Further, the “apoptosis (cleaved PARP)” value in the series with WT and ATG4B KO HCT116 is on record as “did not show any increase in apoptosis”.

The values are drawn from publication PMC9767854, “Discovery and mechanism studies of a novel ATG4B inhibitor Ebselen by drug repurposing and its anti-colorectal cancer effects in mice” (Cell & Bioscience, 2022).
